In PubChem BioAssay AID2305 (GlaxoSmithKline (GSK), 2010) one finds IC50 data, which are given here for 86 compounds.

SMILES strings stand for the structures.

A word on the IC50: it is the concentration that gives 50% inhibition. The low end stands for greater potency in that assay, the high end for weaker potency in that assay.

The test system of the assay is P. falciparum 3D7 growth, pLDH absorbance. The assay is described as follows: P. falciparum 3D7 growth inhibition, dose response, strain 3D7 (AID 2305).

Take `CCN(CC)C(=NCCCCCCN=C(NC(N)=NCc1ccc(Cl)cc1)N(CC)CC)NC(N)=NCc1ccc(Cl)cc1`: the IC50 stood at 230 nM.
The compound `COc1ccc(C2CCC(NCCCCNC(=O)c3ccc(NC(=O)c4ccc(Cl)cc4)cc3)CC2)cc1` (stereo unspecified) had an IC50 of 630 nM.
As to `CSCCC(C(=O)O)N1C(=O)c2ccccc2C1=O` (stereo unspecified), the IC50 turned out to be 1030 nM.
In the case of `O=C(Nc1ccc(-c2cccc(-c3nc4ccc(F)cc4[nH]3)c2)cc1)c1ccncc1` it was 720 nM.
In the case of `NS(=O)(=O)c1cccc(Nc2nccc(-c3c(-c4cccc(NC(=O)c5c(F)cccc5F)c4)nn4ccccc34)n2)c1` it was 70 nM.
In the case of `Cc1cc(-c2ccc(S(=O)(=O)Nc3cc4c(cc3OC(C)C)CCN(C)CC4)cc2)ccc1Cl` it was 900 nM.
Consider `Cc1cccc2[nH]c(-c3ccc(-c4cccc(CNCc5ccccc5)c4)s3)nc12`, for which the IC50 is 740 nM.
In turn, `COc1cc(Nc2ccnc3cc(-c4ccncc4)ccc23)cc(OC)c1OC` yielded an IC50 of 1080 nM.
Under `CC(C)CCN1C(=O)C(NC(=O)Oc2ccccc2)C(=O)N(CC23CC4CC(CC(C4)C2)C3)c2ccccc21` (stereo unspecified) stands 750 nM.
In the case of `Cc1ccc(NC(=O)C(C)Sc2n[nH]c(-c3ccccc3Br)n2)cc1` (stereo unspecified) it was 1090 nM; in that of `Cc1[nH]c(C)c([N+](=O)[O-])c(=O)c1-c1ccc(Oc2ccccc2)cc1`, 270 nM; in that of `O=C(/C=C/c1ccc(Cl)c(Cl)c1)N1CCC(CN2CCC(c3c[nH]c4cc(C(F)(F)F)ccc34)CC2)CC1`, 800 nM.
Under `N#Cc1ccc(CN2CCC(Oc3ccc(NC(=O)c4ccco4)cc3Cl)C2)cc1` (stereo unspecified) stands 330 nM; under `CC1(C)N=C(N)N=C(N)N1OCCCOc1cccc(C(=O)O)c1`, 40 nM; under `Cc1ccc(CC(C)(C)NCC(O)c2cccc(C(F)(F)F)c2)cc1` (stereo unspecified), 840 nM.
`O=C(Nc1ccc(-c2ccccc2)cc1)Nc1cccc(Cn2cnc(N3CCCNCC3)cc2=O)c1` yielded an IC50 of 1080 nM.
Under `CC(O)C1CCCCN1C(=O)c1cccc(-c2cccc(-c3nc4ccc(C(F)(F)F)cc4[nH]3)c2)c1` (stereo unspecified) stands 280 nM.
Take `Cc1ccc(-n2nc(C)c3c2NC(=O)CSC3c2ccsc2)cc1` (stereo unspecified): the IC50 was 1010 nM.
`O=c1c2c([nH]c3cc(Cl)ccc13)CCCC2` displayed an IC50 of 810 nM.
Under `COc1ccc2c(NN=Cc3ccncc3)ccnc2c1` stands 960 nM.
Under `O=C(c1cc(-c2ccco2)[nH]n1)N1CCN(S(=O)(=O)c2ccc(Cl)cc2)CC1` stands 360 nM; under `C=C(F)c1sc(CNCCCNc2nc3ccccc3[nH]2)c(C)c1Br`, 370 nM.
In the case of `COc1ccccc1-c1csc(C(=O)NCC2CCN(Cc3ccc(C(C)(C)C)cc3)C2)c1` (stereo unspecified) it was 1110 nM; in that of `COc1ccc(S(=O)(=O)NC2CCN(c3ccc(C(F)(F)F)cc3NC(=O)OCC(C)C)CC2)cc1`, 1220 nM; in that of `COC(=O)Cn1c2ccccc2c2c(N)c(C(=O)OC)c(C)nc21`, 940 nM.
As for `COCn1ccc2c3c(N)nc(N)nc3ccc21`, the half-inhibitory concentration (IC50) was 990 nM.
As for `CCCCCCNC(=O)C1Cc2c([nH]c3ccc(Br)cc23)C2(CCN(CCc3ccccc3)CC2)N1` (stereo unspecified), the IC50 is 790 nM.
With `O=C(Nc1cccc(-c2ccc(-c3nc4ccc(F)cc4[nH]3)cc2)c1)Nc1ccc(Cl)c(Cl)c1`, the IC50 came to 140 nM.
Under `CCc1nc2nc(C)cc(Nc3ccc4c(c3)OCCO4)n2n1` stands 1290 nM; under `Cc1cccc(OCC(=O)Nc2cccc(NC(=O)COc3cccc(C)c3)n2)c1`, 670 nM.
Turning to `Nc1nc(N)c2c(ccc3c2ccn3CCCC(F)(F)F)n1`, the IC50 was found to be 100 nM.
In the case of `O=C(Nc1ccc(OC2CCN(Cc3ccccc3)C2)c(Cl)c1)c1cccs1` (stereo unspecified) it was 390 nM.
In the case of `COc1ccc(NC(=O)/C=C/c2ccccc2Cl)cc1OCCN1CCN(c2ccncc2)CC1` it was 730 nM; in that of `CCCc1cc(NC2CCN(C)CC2)nc(Nc2ccc(C)cc2)n1`, 900 nM; in that of `Cc1cc(N2CCOCC2)nc(Nc2ccc(NC(=O)Nc3ccc(F)cc3)cc2)n1`, 490 nM.
In the case of `CC(C)CCN1CCC(Oc2ccc(NC(=O)c3ccco3)cc2Cl)CC1` it was 680 nM.
Compound `CC(=O)Nc1cc(C(=O)Nc2cccc(-c3cccc(-c4nc5c(C)cccc5[nH]4)c3)c2)ccc1C` displayed an IC50 of 330 nM.
Under `O=C(Nc1ccc(Cl)c(Cl)c1)N1CCC(NCc2cccc([N+](=O)[O-])c2)CC1` stands 760 nM.
The compound `COc1cccc2cc(C(=O)N[C@@H](CC(C)C)C(=O)NC3CC[C@@H](C)N(C(=O)Nc4ccncc4)CC3=O)oc12` (stereo partly specified) returned an IC50 of 290 nM.
In the case of `Cc1ccc(Nc2nccc(NCC(O)c3cccc(C)c3)n2)cc1` (stereo unspecified) it was 1020 nM.
On to `CC(C)NCc1ccc(-c2cccc(NC(=O)c3ccc(C#N)cc3)c2)cc1`, for which the IC50 amounted to 740 nM.
Under `C[C@H](NC(=O)c1c(OC2CN(C(c3ccccc3)c3ccccc3)C2)c(-c2ccccc2)nc2ccccc12)C1CCCCC1` stands 980 nM.
In the case of `CC(Cc1ccc(OCC(=O)NCC2CCN(CCc3cccc(Cl)c3)CC2)cc1)NCCc1cccc(Cl)c1` (stereo unspecified) it was 660 nM; in that of `COc1cc(CNCCCNc2cc(=O)c3ccccc3[nH]2)c2c(c1)C(C)CN2C(=O)OC(C)(C)C` (stereo unspecified), 730 nM; in that of `COc1cccc2[nH]c(NCCCNCc3cc(Br)cc(Br)c3)nc12`, 950 nM.
In the case of `COc1ccc2nccc([C@@H](O)CN3CCC(NC(=O)C(c4cc5ccccc5o4)N4CCN(c5ccccc5)CC4)CC3)c2c1` (stereo partly specified) it was 240 nM; in that of `c1ccc(-c2cc(NCCCCCCCCNc3cc(-c4ccccc4)nc4ccccc34)c3ccccc3n2)cc1`, 390 nM.
Take `O=C(Cn1c(CCc2cccc(F)c2F)cc(=O)c2ccccc21)N(CCN1CCCCC1)Cc1ccc(-c2ccc(C(F)(F)F)cc2)cc1`: the concentration for half-maximal inhibition (IC50) was found to be 760 nM.
In the case of `O=C(Nc1ccc(-c2cccc(-c3nc4ccc(C(F)(F)F)cc4[nH]3)c2)cc1)c1ccncc1` it was 660 nM; in that of `Cc1ccc2nc(C)cc(NN=CC=Cc3ccccc3)c2c1`, 840 nM.
In the case of `N=C(N)CCN(Cc1ccccc1)c1ccc(Cl)cc1` it was 260 nM.
Under `O=[N+]([O-])c1ccc(/C=N/Nc2cc(-c3ccccc3)nc3ccccc23)o1` stands 860 nM; under `COc1c(C2CCN(CCCCNC(=O)c3ccc(-c4ccc(NC(=O)C(F)(F)F)cc4)cc3)CC2)ccc2c1CCCC2`, 1000 nM.
Regarding `Cc1[nH]c2c(C)cc(NS(C)(=O)=O)cc2c1C1CCN(CC2CCN(C(=O)/C=C/c3ccc(Cl)c(Cl)c3)CC2)CC1`, the IC50 worked out at 240 nM.
Under `O=c1ccc(CNc2nc(NCCc3ccccc3)nc3cc(Cl)ccc23)c[nH]1` stands 300 nM; under `COc1ccc(-c2cnc3ccc(N4CCCC4)nn23)cc1OC`, 770 nM.
Consider `CC(=O)c1ccc(-n2ccnc2)cc1`, for which the IC50 came to 850 nM.
For `Cc1[nH]c(C)c(-c2ccc(OCCOc3ccc(C(F)(F)F)cn3)cc2)c(=O)c1Br`, the IC50 worked out at 140 nM.
Under `COc1ccccc1NC(=S)N/N=C/c1ccc(O)cc1O` stands 1020 nM.
In the case of `CCCCCCCn1c(=N)n(CC(O)c2ccc(Cl)c(Cl)c2)c2ccccc21` (stereo unspecified) it was 780 nM.
In the case of `CC[C@H]1CN2CC[C@@H]1C[C@H]2[C@H](O)c1cc(-c2ccc(Cl)c(Cl)c2)nc2ccc(O)cc12` it was 260 nM.
Compound `Cc1ccccc1-c1cc(=O)c2cc(NC(=O)c3cccs3)ccc2o1` showed an IC50 of 220 nM.
Under `CCCCN1C(=O)[C@H]2CC(=O)CC(C3CCCCC3)[C@H]2C1=O` (stereo partly specified) stands 890 nM; under `O=C(NCC1CCN(Cc2cccc(F)c2)C1)c1cc(-c2cccc(C(F)(F)F)c2)cs1` (stereo unspecified), 990 nM.
In the case of `CCc1c[nH]c2c(N3CCCS3(=O)=O)cc(C(=O)N[C@@H](Cc3ccccc3)[C@H](O)CNC(C)(C)CCCC(C)C)cc12` it was 670 nM.
Under `N#Cc1ccc(CCNc2nccc(-c3cccc(CN4CCNCC4)c3)n2)cc1` stands 1250 nM; under `Cc1[nH]c(C)c(C2CCC(c3ccc(Cl)cc3)CC2)c(=O)c1Cl` (stereo unspecified), 50 nM; under `COc1ccc(NC(=O)c2cccc(Br)c2)cc1N1CCN(CCCCCCCN2CCN(c3cc(NC(=O)c4cccc(Br)c4)ccc3OC)CC2)CC1`, 180 nM.
Consider `Cc1cccc2[nH]c(-c3ccc(-c4cccc(C(=O)NCCc5cn(C)cn5)c4)s3)nc12`, for which the IC50 is 880 nM.
In the case of `Cc1cccc2[nH]c(-c3ccc(-c4ccc(CNCCCN5CCCC5=O)cc4)cc3)nc12` it was 630 nM.
Turning to `Cc1cc(F)ccc1[C@H]1C[C@H](N2CCOCC2)CCN1C(=O)N(C)[C@@H](C)c1cc(C(F)(F)F)cc(C(F)(F)F)c1`, the IC50 was determined as 760 nM.
Under `CCN1CCC(N(Cc2ccc(-c3ccc(C(F)(F)F)cc3)cc2)C(=O)Cn2nc(C)c(=O)cc2SCc2ccc(F)cc2)CC1` stands 1010 nM.
Under `CCCCNC[C@@H](O)[C@H](Cc1ccccc1)NC(=O)c1cc2c3c(c1)c(CC)cn3CCS(=O)(=O)N2C` stands 200 nM.
Under `NC1=NC(c2ccccc2)(c2ccccc2)C(=O)N1CCCCc1ccccn1` stands 1260 nM; under `O=[N+]([O-])c1ccc2c(c1)c1ccccc1n2Cc1ccccc1O`, 1110 nM; under `CCN(CC)C(=NCCCCCCN=C(NC(N)=NCc1cccc(Cl)c1)N(CC)CC)NC(N)=NCc1cccc(Cl)c1`, 210 nM.
As for `COc1ccc(O)cc1Cc1cnc2nc(N)nc(N)c2c1C`, the IC50 stood at 10 nM.
In the case of `Cc1cc(CNCCCCCNCc2ccc(Cl)cc2)ccc1O` it was 710 nM; in that of `COc1ccc2c(CNCCCCCCNCc3c(OC)ccc4cc(OC)ccc34)c(OC)ccc2c1`, 560 nM; in that of `CC(C)(CNCc1ccc(Cl)cc1)c1nc(-c2ccc(Cl)c(O)c2)c(-c2ccncc2)[nH]1`, 480 nM.
`Cc1cc(N[C@@H](Cc2ccccc2)C(=O)Nc2ccccc2)nc(Nc2ccccc2)n1` came in with an IC50 of 1010 nM.
Under `COc1ccc(-c2ccc(NC(=O)c3cccc(C#N)c3)cc2)cc1CN1CCCC(C(N)=O)C1` (stereo unspecified) stands 860 nM.
In the case of `CCCNCc1ccc(-c2ccc(CN(C(=O)c3nn(-c4ccccc4)nc3C)C(C)CN(C)C)cc2)nc1` (stereo unspecified) it was 920 nM; in that of `COc1ccc(S(=O)(=O)NC2CCN(c3ccnc4cc(Cl)ccc34)C2)cc1` (stereo unspecified), 490 nM.
In the case of `COc1cc(C(=O)NCc2nn(CCN3CCC(N4CCCC4)CC3)cc2-c2ccc(Cl)c(Cl)c2)cc(OC)c1OC` it was 770 nM; in that of `CCCC1(NC[C@@H](O)[C@H](Cc2ccccc2)NC(=O)c2cc(NCC)cc(N3CCCCS3(=O)=O)c2)CCC1`, 720 nM.
